Measurements as given in patent publication US20250270206A1, “COMPOSITIONS AND METHODS FOR INHIBITION OF RAS” (TheRas, Inc., priority 2022, published 2025).

Tests used:
[1] = target: T1, Avi-KRAS G12C (1-169) GppNHp/RAF1 RBD-3×FLAG (52-151) (Homo sapiens, UniProt P01116, G12C); assay: KRAS G12C-effector (RAF1 RBD) protein:protein interaction HTRF disruption assay; format: biochemical; settings: PPI HTRF
T1 construct: Avi-KRAS G12C (1-169) GppNHp
In short: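 TR-FRET disruption read-out (excitation 320 nm, emission 615 nm), expressed relative to DMSO set at 100% activity, over a 3-fold compound series of 30-0.02 μM. Tris pH 7.5 buffer with 5 mM MgCl2, 0.1% BSA and 10% DMSO. GppNHp-bound KRAS G12C (50 nM), then RAF1 RBD (75 nM), then detection reagents, each incubated 1 h at RT.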

[2] = target: T2, GTP-loaded KRAS4b (amino acids 1-169) G12C/C118S (Homo sapiens, UniProt P01116, C118S/G12C); assay: MALDI-TOF MS covalent Cys12 modification, GTP-loaded KRAS G12C; format: binding; settings: 15 minutes reaction time, 1 μM protein, 1:2.5 protein to compound ratio
T2 construct: KRAS4b (amino acids 1-169) G12C/C118S protein; made in house
In short: (§1)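 1 μM KRAS4b(1-169) G12C/C118S loaded with GTP, GppNHp or GDP in 20 mM HEPES, 150 mM NaCl, 1 mM MgCl2, pH 7.3, treated at a 1:2.5 protein:compound ratio in the dark at room temperature. Linear-mode MALDI-TOF; percent modification = adduct peak height over total protein peak heights, at 15 min.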

[3] = target: T3, GppNHp-loaded KRAS4b (amino acids 1-169) G12C/C118S (Homo sapiens, UniProt P01116, C118S/G12C); assay: MALDI-TOF MS covalent Cys12 modification, GppNHp-loaded KRAS G12C; format: binding; settings: 15 minutes reaction time, 1 μM protein, 1:2.5 protein to compound ratio
T3 construct: KRAS4b (amino acids 1-169) G12C/C118S protein; made in house
In short: as §1

[4] = target: T4, GDP-loaded KRAS4b (amino acids 1-169) G12C/C118S (Homo sapiens, UniProt P01116, C118S/G12C); assay: MALDI-TOF MS covalent Cys12 modification, GDP-loaded KRAS G12C; format: binding; settings: 15 minutes reaction time, 1 μM protein, 1:2.5 protein to compound ratio
T4 construct: KRAS4b (amino acids 1-169) G12C/C118S protein; made in house
In short: as §1

[5] = test system: pERK in NCI-H358 cells; assay: Cell-based pERK HTRF assay; settings: Homo sapiens, 0.5 h, 30 min incubation
In short: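 KRAS G12C NCI-H358 cells in RPMI/10% FBS treated 30 min with compound, 9-point 3-fold series from 75 μM final top, 0.25% DMSO. Lysates read for phospho-ERK by HTRF (d2/Eu cryptate antibodies, 615 nm emission) after 4–24 h room-temperature incubation.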

Structure (SMILES)	IC50 [1]	GTP-KRAS G12C percent of modification [2]	GppNHp-KRAS G12C percent of modification [3]	GDP-KRAS G12C percent of modification [4]	IC50 [5]
C=CC(=O)N1CC[C@@H](N(C)c2nc(OC[C@@]34CCCN3C[C@H](F)C4)nc3c(F)c(-c4ccc(F)c5sc(N)c(C#N)c45)ncc23)[C@@H]1CC [Compound 44]	500 to 5000 nM	D (percent of modification <10%)	C (10%≤percent of modification <50%)	A (percent of modification ≥70%)	100 to 1000 nM
C=CC(=O)N1CC[C@@H](N(C)c2nc(OC[C@@]34CCCN3C[C@H](F)C4)nc3c(Cl)c(-c4ccc(F)c5sc(N)c(C#N)c45)ncc23)[C@@H]1CC [Compound 45]	500 to 5000 nM	D (percent of modification <10%)	C (10%≤percent of modification <50%)	A (percent of modification ≥70%)	100 to 1000 nM
C=CC(=O)N1CC[C@@H](N(CC)c2nc(OC[C@@]34CCCN3C[C@H](F)C4)nc3c(F)c(-c4ccc(F)c5sc(N)c(C#N)c45)ncc23)[C@H]1CC [Compound 46]	≤ 500 nM	A (percent of modification ≥70%)	A (percent of modification ≥70%)	A (percent of modification ≥70%)	100 to 1000 nM
C=CC(=O)N1CC[C@@H](N(C)c2nc(OC[C@@]34CCCN3C[C@H](F)C4)nc3c(Cl)c(-c4ccc(F)c5sc(N)c(C#N)c45)ncc23)[C@H]1CC [Compound 47]	≤ 500 nM	A (percent of modification ≥70%)	A (percent of modification ≥70%)	A (percent of modification ≥70%)	≤ 100 nM
C=CC(=O)N1CC[C@@H](N(CC)c2nc(OC[C@@]34CCCN3C[C@H](F)C4)nc3c(F)c(-c4ccc(F)c5sc(N)c(C#N)c45)ncc23)[C@@H]1CC [Compound 48]	500 to 5000 nM	D (percent of modification <10%)	D (percent of modification <10%)	A (percent of modification ≥70%)	100 to 1000 nM
C=CC(=O)N1CC[C@@H](N(CC)c2nc(OC[C@@]34CCCN3C[C@H](F)C4)nc3c(Cl)c(-c4ccc(F)c5sc(N)c(C#N)c45)ncc23)[C@@H]1CC [Compound 49]	500 to 5000 nM	D (percent of modification <10%)	D (percent of modification <10%)	A (percent of modification ≥70%)	100 to 1000 nM
C=CC(=O)N1CC[C@@H](N(CC)c2nc(OC[C@@]34CCCN3C[C@H](F)C4)nc3c(F)c(-c4ccc(F)c5sc(N)c(C#N)c45)ncc23)[C@@H]1C [Compound 50]	≤ 500 nM	C (10%≤percent of modification <50%)	A (percent of modification ≥70%)	A (percent of modification ≥70%)	≤ 100 nM
C=CC(=O)N1CC[C@@H](N(CC)c2nc(OC[C@@]34CCCN3C[C@H](F)C4)nc3c(Cl)c(-c4ccc(F)c5sc(N)c(C#N)c45)ncc23)[C@@H]1C [Compound 51]	≤ 500 nM	C (10%≤percent of modification <50%)	A (percent of modification ≥70%)	A (percent of modification ≥70%)	≤ 100 nM
C=CC(=O)N1CC[C@@H](N(C)c2nc(OC[C@@]34CCCN3C[C@H](F)C4)nc3c(F)c(-c4ccc(F)c5sc(N)c(C#N)c45)ncc23)[C@@H]1C [Compound 52]	≤ 500 nM	B (50% percent of modification <70%)	A (percent of modification ≥70%)	A (percent of modification ≥70%)	≤ 100 nM
C=CC(=O)N1CC[C@@H](N(C)c2nc(OC[C@@]34CCCN3C[C@H](F)C4)nc3c(Cl)c(-c4ccc(F)c5sc(N)c(C#N)c45)ncc23)[C@@H]1C [Compound 53]	≤ 500 nM	B (50% percent of modification <70%)	A (percent of modification ≥70%)	A (percent of modification ≥70%)	≤ 100 nM
